“Also recorded” adds a separate entry of the source. Read-outs that look alike come from different tables or passages of the source.
Key:
rat hippocampal neurons = settings: cited from earlier work
cytochrome oxidase (COX) = settings: brains from ovariectomized mice; cited from earlier work
B16 cells = assay: B16 tumor growth in mice with daily subcutaneous S-equol (Example 6); type: in vivo; settings: S-equol 20 or 60 mg/kg per day s.c. vs PBS vehicle; start at tumor mass 50 to 80 mm^3
Procedure: Further work in a preclinical animal model supports the notion of using S-cquol to treat melanoma. In immunocompromised mouse experiments, using B16, a murine tumor cell line know to be useful to study human melanoma metastasis and solid tumor formation, growth of tumors is suppressed with S-equol treatment compared to control. 0.5×10^6 B16 cells are injected into normal BL mice. When the tumor masses reach 50 to 80 mm^3 (about one week after the inoculation), the mice are given daily subcutaneous injections of S-equol (20 or 60 mg/kg per day) or PBS as a vehicle control. Tumor development is followed by caliper measurements along two orthogonal axes: length (L) and width (W) and volume (V) is estimated by the formula V=[L×(W^2)]/2. Tumors harvested from mice are fixed in 10% neutral-buffered formalin, dehydrated, embedded in paraffin, and sectioned at 3 μm thickness. Representative tumor sections from vehicle control and S-equol-treated mice are tested for Ki-67 expression to assess cell proliferation, and for ERβ pY36. Statistical significance in the experiments is assessed by two-tailed Student's t test. In all assays, p<0.05 is considered statistically significant.

melanoma = assay: Pilot biomarker clinical study of Ki67 in melanoma subjects (Example 7); type: in vivo, human; settings: oral S-equol 50 mg twice daily for 10-21 days; 20 subjects with melanoma
Procedure: A pilot biomarker clinical study is performed in 20 subjects with documented melanoma to determine the effect of the ERβ agonist S-equol on Ki67 an indicator of tumor cell proliferation. Tumor cell proliferation is measured by immunohistological staining for Ki-67. Ki-67 is encoded by the gene MKI67 gene and is required to maintain individual mitotic chromosomes dispersed in the cytoplasm following nuclear envelope disassembly. Measuring the fraction of Ki-67-positive cells in a tumor is known to be a reliable parameter for assessing cancer patient prognosis. Subjects with TNBC are known to have very high levels of Ki67.
Patients enrolled in the study receive a history, physical, laboratory assessment, radiological imaging, and diagnostic biopsies. Immunohistochemistry (IHC) of Ki67 (proliferation marker), total ERβ, and pY36-ERβ (phosphorylated ERβ), B7H1 (also known as PDL-1) and MIA and S100B are conducted using core needle biopsy tissue samples prior to treatment. Patients are given oral S-equol 50 mg, twice daily for approximately two weeks (10-21 days) prior to the scheduled oncologic surgeries or start of primary systemic therapy. […]
A standard procedure for acquiring core biopsy is utilized for determining melanoma prior to enrollment. […] The tissue samples are sent for staining of total and pY36, ERβ and Ki67, and analyzed. […]

[1] = system: B16 melanoma tumor cell line; assay: B16 melanoma tumor challenge in mice, S-equol and anti-PD-1 antibody alone or combined; type: in vivo; settings: for tumor volume: anti-PD-1 250 μg every 3 days i.p., S-equol 50 mg/kg per day oral gavage
Procedure: FIG. 4. A schema for combination therapy. Mice were administered one of: (1) vehicle+rat IgG2a; (2)S-equol+rat IgG2a; (3) vehicle+anti-PD-1 antibody; or (4)S-equol+anti-PD-1 antibody. Mice receiving anti-PD-1 antibody were given 250 μg every 3 days, intraperitoneally, and mice receiving S-equol were given 50 mg/kg per day by oral gavage. Treatment started 7 days after tumor challenge with B16 melanoma.
Melanoma cell line B16 was tested to determine the effects of a PD-1 inhibitor, S-equol and a combination of the two therapies on tumor growth. This experimental design includes four arms: (1) controls, (2) αPD-1, (3)S-cquol, and (4) αPD-1+S-equol (FIG. 4) by injecting into mice 5×10^5 cells subcutaneously. Antibodies were administered α-PD-1: 250 μg/mice by i.p. injection every 3 days and S-equol was administered at 50 mg/kg/day by oral gavage. Treatment began 7 day after tumor challenge. Tumor growth trajectories were compared within treated mice using a repeated measures linear mixed model. The primary outcome was the logarithm of the tumor size, and the test statistic is the treatment X time interaction. Tumors were measured about 10 times. The number of recipient mice use used in the studies (n=6 per group) was based on the above study.

[2] = system: triple negative breast cancer (TNBC); settings: cited from earlier work

## Oc1ccc([C@H]2COc3cc(O)ccc3C2)cc1 [S-equol]
Rat hippocampal neurons
  respiratory and maximal glycolysis fluxes: increase
Cytochrome oxidase (COX)
  COX1 protein levels: increase
  cytochrome oxidase (COX) activity: increase
B16 cells
  growth of tumors: suppressed
melanoma
  Ki67 (tumor cell proliferation, IHC) pre- vs post-treatment: measurable decrease; also recorded: measurable decline
[1]; Example 4, FIGS. 6-9, n=6 per group
  effect on anticancer immunotherapy: boost anticancer immunotherapy
[1]; FIG. 6, over 12 days post-challenge
  tumor volume: reduce tumor volume compared to control
[1]; FIG. 7, over 19 days post-challenge
  tumor volume: reduce tumor volume compared to control
[1]; FIG. 8A, mice challenged with B16 melanoma
  tumor weight: reduce tumor weight compared to control
[1]; FIG. 9A, over 16 days (title) / 12 days post-challenge
  tumor volume: reduce tumor volume compared to control

## atezolizumab
[2]; 21 evaluable, PD-L1 expressing TNBC tumors
  response rate: 19%

## avelumab
[2]; 168 TNBC tumors unselected for PD-L1 expression
  response rate: 8.6%

## pembrolizumab
[2]; Phase 1 study, 27 women with heavily pretreated, chemotherapy resistant, metastatic TNBC that expressed PD-L1
  response rate: 18.4%

Reference: patent US12064413B2, “Methods of treating melanoma with S-equol” (The Board of Regents of the University of Texas System, priority 2018, dated 2024)
